For series [1], the system named is U-87 MG. Description: Antiproliferative activity against human U87 cells incubated for 48 hrs by MTT assay. In kind it is functional, cell-based, U-87MG ATCC. (In general: Formazan colour is commonly taken as a measure of viable cells.)
Series [2] deals with A549. The series can be described thus: Antiproliferative activity against human A549 cells incubated for 48 hrs by MTT assay. The conditions noted are these: A549, 48 h. In kind it is functional, cell-based.
Series [3] concerns HEK293. The series can be described thus: Cytotoxicity against HEK293 cells at low concentration incubated for 48 hrs by MTT assay. Format: toxicity, cell-based. The conditions noted are these: human, hek293, 48 h.
For series [4], the system named is HEK293. Description: Cytotoxicity against HEK293 cells at high concentration incubated for 48 hrs by MTT assay. In kind it is toxicity, cell-based. The conditions noted are these: human, hek293, 48 h.
A short description of series [5]: Stability of compound in DMEM medium by HPLC analysis. Format: physicochemical.
Series [6] deals with U-87 MG. The series can be described thus: Antiproliferative activity against human U87 cells incubated for 48 hrs in presence of 4-(4-(3-(4-chloro-3-(trifluoromethyl)phenyl)ureido)phenoxy)-N-(prop-2-yn-1-yl)picolinamide by MTT assay. Format: functional, cell-based, U-87MG ATCC.
The subject of series [7] is A549. The series can be described thus: Antiproliferative activity against human A549 cells incubated for 48 hrs in presence of 4-(4-(3-(4-chloro-3-(trifluoromethyl)phenyl)ureido)phenoxy)-N-(prop-2-yn-1-yl)picolinamide by MTT assay. To be noted: A549, 48 h. In kind it is functional, cell-based.
Series [8] concerns HEK293. Description: Cytotoxicity against HEK293 cells incubated for 48 hrs by MTT assay. The conditions noted are these: human, hek293, 48 h. In kind it is toxicity, cell-based.
The subject of series [9] is HEK293. The series can be described thus: Cytotoxicity against HEK293 cells at low concentration incubated for 48 hrs in presence of 4-(4-(3-(4-chloro-3-(trifluoromethyl)phenyl)ureido)phenoxy)-N-(prop-2-yn-1-yl)picolinamide by MTT assay. Format: toxicity, cell-based. The conditions noted are these: human, hek293, 48 h.
For series [10], the system named is HEK293. The series can be described thus: Cytotoxicity against HEK293 cells at high concentration incubated for 48 hrs in presence of 4-(4-(3-(4-chloro-3-(trifluoromethyl)phenyl)ureido)phenoxy)-N-(prop-2-yn-1-yl)picolinamide by MTT assay. In kind it is toxicity, cell-based. The conditions noted are these: human, hek293, 48 h.
Series [11] addresses Vascular endothelial growth factor receptor 2 (Homo sapiens) (UniProt P35968). The series can be described thus: Induction of VEGFR2 degradation in human U87 cells upto 10 uM incubated for 48 hrs by Western blot analysis. In kind it is cell-based. For orientation: Immunoblotting shows a protein as a band on a membrane.
Series [12] deals with Platelet-derived growth factor receptor beta (Homo sapiens) (UniProt P09619). Description: Induction of PDGFR-beta degradation in human U87 cells upto 10 uM incubated for 48 hrs by Western blot analysis. Format: cell-based.
Sequence of Platelet-derived growth factor receptor beta (Homo sapiens) (P09619 whole entry): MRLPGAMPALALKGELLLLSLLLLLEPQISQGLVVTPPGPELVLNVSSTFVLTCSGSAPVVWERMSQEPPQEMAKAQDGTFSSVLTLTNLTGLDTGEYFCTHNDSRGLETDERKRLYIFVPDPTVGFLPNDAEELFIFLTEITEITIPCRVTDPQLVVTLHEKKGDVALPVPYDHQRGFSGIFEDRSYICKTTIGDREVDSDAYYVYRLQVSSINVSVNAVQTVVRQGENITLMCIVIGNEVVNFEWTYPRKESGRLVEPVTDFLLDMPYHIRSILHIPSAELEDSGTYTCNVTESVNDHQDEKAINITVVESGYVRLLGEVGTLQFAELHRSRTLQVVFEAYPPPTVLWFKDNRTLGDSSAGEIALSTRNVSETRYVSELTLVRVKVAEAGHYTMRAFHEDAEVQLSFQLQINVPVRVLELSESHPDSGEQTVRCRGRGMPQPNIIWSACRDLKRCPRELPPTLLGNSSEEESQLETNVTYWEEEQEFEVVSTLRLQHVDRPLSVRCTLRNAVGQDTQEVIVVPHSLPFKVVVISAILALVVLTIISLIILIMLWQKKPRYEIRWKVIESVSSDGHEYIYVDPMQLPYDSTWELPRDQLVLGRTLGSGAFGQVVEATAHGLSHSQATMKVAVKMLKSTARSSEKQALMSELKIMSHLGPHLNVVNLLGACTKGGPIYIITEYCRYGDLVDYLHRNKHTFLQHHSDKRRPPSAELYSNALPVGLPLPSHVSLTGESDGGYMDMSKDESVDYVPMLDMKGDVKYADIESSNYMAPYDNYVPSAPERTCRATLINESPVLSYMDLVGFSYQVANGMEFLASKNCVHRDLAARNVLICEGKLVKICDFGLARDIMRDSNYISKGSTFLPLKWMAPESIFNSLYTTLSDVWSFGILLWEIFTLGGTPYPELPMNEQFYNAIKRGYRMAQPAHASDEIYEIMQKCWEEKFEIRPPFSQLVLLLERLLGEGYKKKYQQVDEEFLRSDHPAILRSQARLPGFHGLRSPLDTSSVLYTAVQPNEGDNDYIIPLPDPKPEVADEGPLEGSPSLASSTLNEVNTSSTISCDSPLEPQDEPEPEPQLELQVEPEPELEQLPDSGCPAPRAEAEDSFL
For series [13], the target named is T1, Ephrin type-B receptor 4 (Homo sapiens) (UniProt P54760).
T1 sequence (whole entry): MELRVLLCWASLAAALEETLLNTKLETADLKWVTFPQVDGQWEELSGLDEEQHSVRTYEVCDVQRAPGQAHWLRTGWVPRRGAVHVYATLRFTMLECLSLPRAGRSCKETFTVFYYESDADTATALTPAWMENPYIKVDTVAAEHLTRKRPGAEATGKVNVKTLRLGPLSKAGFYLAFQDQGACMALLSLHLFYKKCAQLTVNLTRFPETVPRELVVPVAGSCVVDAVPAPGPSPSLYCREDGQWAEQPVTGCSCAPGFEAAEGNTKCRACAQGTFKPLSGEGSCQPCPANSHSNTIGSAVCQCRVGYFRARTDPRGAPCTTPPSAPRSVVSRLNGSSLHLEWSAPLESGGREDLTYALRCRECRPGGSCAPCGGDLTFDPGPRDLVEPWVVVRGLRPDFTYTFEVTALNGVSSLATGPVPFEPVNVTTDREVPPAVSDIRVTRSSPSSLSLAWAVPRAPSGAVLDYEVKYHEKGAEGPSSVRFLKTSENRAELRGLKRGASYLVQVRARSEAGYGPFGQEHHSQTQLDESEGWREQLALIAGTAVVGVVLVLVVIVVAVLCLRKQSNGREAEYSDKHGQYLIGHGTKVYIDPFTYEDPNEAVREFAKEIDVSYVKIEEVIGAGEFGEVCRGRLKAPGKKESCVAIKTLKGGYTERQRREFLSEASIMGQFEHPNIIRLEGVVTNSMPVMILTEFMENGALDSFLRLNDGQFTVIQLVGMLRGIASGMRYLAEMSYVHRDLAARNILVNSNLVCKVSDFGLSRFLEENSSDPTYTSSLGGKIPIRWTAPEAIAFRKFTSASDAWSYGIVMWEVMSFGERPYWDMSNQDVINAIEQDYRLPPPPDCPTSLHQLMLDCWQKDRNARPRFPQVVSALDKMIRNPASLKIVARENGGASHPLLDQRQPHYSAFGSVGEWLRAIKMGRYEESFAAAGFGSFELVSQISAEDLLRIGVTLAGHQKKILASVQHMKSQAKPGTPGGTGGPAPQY
The series can be described thus: Induction of EphB4 degradation in human U87 cells upto 10 uM incubated for 48 hrs by Western blot analysis. In kind it is cell-based.

In series [14] the target is Serine/threonine-protein kinase B-raf (Homo sapiens) (UniProt P15056). Description: Induction of BRAF degradation in human U87 cells upto 10 uM incubated for 48 hrs by Western blot analysis. Format: cell-based.
Sequence of Serine/threonine-protein kinase B-raf (Homo sapiens) (P15056 whole entry): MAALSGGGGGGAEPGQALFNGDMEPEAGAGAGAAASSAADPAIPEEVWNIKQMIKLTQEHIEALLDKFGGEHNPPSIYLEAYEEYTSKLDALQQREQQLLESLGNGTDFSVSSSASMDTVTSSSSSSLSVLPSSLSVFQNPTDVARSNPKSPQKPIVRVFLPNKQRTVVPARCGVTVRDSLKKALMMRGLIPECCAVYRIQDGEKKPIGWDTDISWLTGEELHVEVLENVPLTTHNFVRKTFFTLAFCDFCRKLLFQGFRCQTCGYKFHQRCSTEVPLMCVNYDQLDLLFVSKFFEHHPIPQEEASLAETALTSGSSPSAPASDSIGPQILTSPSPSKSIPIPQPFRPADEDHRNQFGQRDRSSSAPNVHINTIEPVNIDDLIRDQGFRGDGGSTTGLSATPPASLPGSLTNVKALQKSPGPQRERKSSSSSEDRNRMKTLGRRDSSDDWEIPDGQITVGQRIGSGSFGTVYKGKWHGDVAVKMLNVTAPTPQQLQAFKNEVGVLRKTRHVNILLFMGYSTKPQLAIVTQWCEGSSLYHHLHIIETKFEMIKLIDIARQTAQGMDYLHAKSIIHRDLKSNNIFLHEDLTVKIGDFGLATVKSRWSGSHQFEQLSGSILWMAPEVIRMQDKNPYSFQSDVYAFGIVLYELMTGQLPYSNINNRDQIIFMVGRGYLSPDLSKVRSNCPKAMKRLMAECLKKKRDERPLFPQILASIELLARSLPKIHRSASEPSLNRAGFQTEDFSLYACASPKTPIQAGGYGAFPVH
Series [15] concerns the target Vascular endothelial growth factor receptor 2 (Homo sapiens) (UniProt P35968). Description: Induction of VEGFR2 degradation in human U87 cells at 2 uM incubated for 48 hrs in presence of 4-(4-(3-(4-chloro-3-(trifluoromethyl)phenyl)ureido)phenoxy)-N-(prop-2-yn-1-yl)picolinamide by Western blot analysis. In kind it is cell-based.
The target in series [16] is T1, Ephrin type-B receptor 4 (Homo sapiens). The series can be described thus: Induction of EphB4 degradation in human U87 cells at 2 uM incubated for 48 hrs in presence of 4-(4-(3-(4-chloro-3-(trifluoromethyl)phenyl)ureido)phenoxy)-N-(prop-2-yn-1-yl)picolinamide by Western blot analysis. Format: cell-based.
In series [17] the test system is U-87 MG. The series can be described thus: Induction of cell cycle arrest at S phase in human U87 cells incubated for 48 hrs in presence of 4-(4-(3-(4-chloro-3-(trifluoromethyl)phenyl)ureido)phenoxy)-N-(prop-2-yn-1-yl)picolinamide by PI staining based flow cytometry. In kind it is functional. The conditions noted are these: U-87MG ATCC, dose 0.1-1 µM. On the technique in general: A flow cytometer gives signals particle by particle.

Calls of active or inactive are those of the source. No cut-off for these calls is given here. Bounds are passed on as bounds.

Sequence of Vascular endothelial growth factor receptor 2 (Homo sapiens) (P35968 whole entry): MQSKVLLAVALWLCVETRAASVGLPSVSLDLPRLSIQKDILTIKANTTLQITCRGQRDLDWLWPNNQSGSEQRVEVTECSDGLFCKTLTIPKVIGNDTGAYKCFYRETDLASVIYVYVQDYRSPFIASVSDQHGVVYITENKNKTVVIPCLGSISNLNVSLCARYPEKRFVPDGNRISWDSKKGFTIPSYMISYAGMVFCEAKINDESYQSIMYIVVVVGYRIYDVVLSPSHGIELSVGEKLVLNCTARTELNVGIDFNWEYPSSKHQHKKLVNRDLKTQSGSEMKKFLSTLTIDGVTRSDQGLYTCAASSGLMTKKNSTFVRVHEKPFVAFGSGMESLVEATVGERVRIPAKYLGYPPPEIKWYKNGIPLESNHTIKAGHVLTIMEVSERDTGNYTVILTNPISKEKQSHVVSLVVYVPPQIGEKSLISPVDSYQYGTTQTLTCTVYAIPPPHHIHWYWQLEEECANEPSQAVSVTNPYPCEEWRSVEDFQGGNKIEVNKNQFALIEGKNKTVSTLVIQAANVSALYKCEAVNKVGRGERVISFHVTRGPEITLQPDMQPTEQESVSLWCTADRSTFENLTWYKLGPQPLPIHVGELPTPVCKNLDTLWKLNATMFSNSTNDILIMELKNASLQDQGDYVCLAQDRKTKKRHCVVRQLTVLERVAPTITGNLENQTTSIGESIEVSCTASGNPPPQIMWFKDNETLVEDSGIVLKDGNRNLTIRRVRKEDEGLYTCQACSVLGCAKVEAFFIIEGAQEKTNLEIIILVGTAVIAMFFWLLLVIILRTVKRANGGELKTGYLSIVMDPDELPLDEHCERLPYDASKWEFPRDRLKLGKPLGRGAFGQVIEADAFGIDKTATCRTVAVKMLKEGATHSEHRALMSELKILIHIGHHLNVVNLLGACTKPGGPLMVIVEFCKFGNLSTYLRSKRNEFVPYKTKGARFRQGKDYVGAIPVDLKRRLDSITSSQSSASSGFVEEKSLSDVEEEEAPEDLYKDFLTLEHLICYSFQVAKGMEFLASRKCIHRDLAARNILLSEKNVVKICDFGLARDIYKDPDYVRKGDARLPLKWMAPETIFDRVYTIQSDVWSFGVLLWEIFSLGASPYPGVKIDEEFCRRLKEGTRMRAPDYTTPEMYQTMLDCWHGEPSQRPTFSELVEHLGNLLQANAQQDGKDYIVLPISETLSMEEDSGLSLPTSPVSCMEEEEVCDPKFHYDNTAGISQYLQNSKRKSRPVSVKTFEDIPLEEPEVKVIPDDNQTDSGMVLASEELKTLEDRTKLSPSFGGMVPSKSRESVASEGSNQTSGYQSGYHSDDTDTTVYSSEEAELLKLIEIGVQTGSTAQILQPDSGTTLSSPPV

With `CNC(=O)c1cc(Oc2ccc(NC(=O)Nc3ccc(Cl)c(C(F)(F)F)c3)cc2)ccn1` [SORAFENIB], the results for the IC50 with U-87 MG [1] and in the series with A549 [2] were 1.28 µM and 8.26 µM, respectively. The figures for the Activity result in the series on HEK293 [3] and with HEK293 [4] were “Non-Toxic” and “Toxic”, respectively.
Consider `Cc1ncsc1-c1ccc(CNC(=O)[C@@H]2C[C@@H](O)CN2C(=O)[C@@H](NC(=O)CCCCN=[N+]=[N-])C(C)(C)C)cc1`, for which the Stability entry in [5] was “Stable”. Also, the IC50 (in general, the concentration needed to halve the response being measured) is more than 50 µM with U-87 MG [1], more than 50 µM in the series with A549 [2], 16 µM with U-87 MG [6] and 1.06 µM in the series with A549 [7]. For the same compound, the Activity entry in the series with HEK293 [8] is “Non-Toxic”; in the series with HEK293 [9], “Non-Toxic”; in the series on HEK293 [10] it was “Toxic”; with U-87 MG [17] it was “Dose-Dependent Effect”. The result in series [11], in series [12], in series [13] and in series [14] was inactive. For the same compound, the result in [15] and in series [16] was Active.
Consider `Nc1cccc2c1C(=O)N(C1CCC(=O)NC1=O)C2=O` (stereo not given) [POMALIDOMIDE], for which the Stability entry in series [5] is reported as “Unstable”.

The record behind these values is ChEMBL document CHEMBL5620355, “Discovery of intracellular self-assembly protein degraders driven by tumor-specific activatable bioorthogonal reaction” (Eur J Med Chem, 2023).
